Assay results from patent publication US12109218B2, “Compositions of grapiprant and methods for using the same” (ARATANA THERAPEUTICS, INC., priority 2014, dated 2024).

What was measured:
[1] = Dose linearity and effect of feeding, PK in cats (Example 10); type: in vivo, cat; settings: male, serum, po, cats, Fasted, Male, mean; for half-life: read-out: t1/2 (converted)
Description: Grapiprant was blended in a mixture of excipients as shown in Table 14 and administered orally by capsule to male and female cats.
The day of dosing was defined as Day 0. Following dosing, the animals were evaluated for clinical signs. Blood samples were collected prior to dosing and at 0.25, 0.5, 1, 2, 4, 8, 12, and 24-hours postdose. The blood samples were processed to serum and analyzed for grapiprant concentration. There were no test article-related clinical signs. The mean grapiprant pharmacokinetic results were as follow in Table 16.

[2] = Pharmacokinetics in cats FPK-13-004 (Example 13); type: in vivo, cat; settings: for AUC(0-t) / Cmax / Tmax / half-life / Cmax/Dose: cats
Description: This controlled, non-GLP, laboratory study used three treatment groups: Group 1 was dosed with grapiprant at 2.5 mg/animal; Group 2 was dosed with grapiprant at 5 mg/animal; and Group 3 was dosed with grapiprant at 10 mg/animal. Each dose was administered once on Day 0. Blood samples were collected and processed to serum for pharmacokinetic (PK) analysis. Four hours post-dose, all cats were offered food. Following PK sample collections on Day 1, all animals were released to an open feline colony.
Pharmacokinetic parameters were similar between males and females within each dose group, and therefore mean values were determined by combining data from all animals.

[3] = system: dogs with naturally occurring osteoarthritis; experiment: Dose ranging field study in osteoarthritic dogs, CBPI (Example 6); type: in vivo, dog; settings: for median decrease from baseline PSS score: placebo 28; for median decrease from baseline PIS score: placebo 39.13; for Pain Interference Score (PIS), % change from Day 0 / Pain Severity Score (PSS), % change from Day 0: Formulation A34 tablets
Description: In a masked, multi-centered dose ranging field study, dogs with naturally occurring osteoarthritis were treated with grapiprant at 2 mg/kg once daily (SID), 5 mg/kg once daily, 4 mg/kg twice daily (BID), or placebo twice daily to assess the control of pain and inflammation. Dogs were randomly assigned to one of the four treatment groups and treated orally with Formulation A34 tablets of 20, 60, and 100 mg, or placebo tablets (matched to the 4 mg/kg group). (See above at Example 2, Table 4). The control of pain and inflammation was assessed by the owner using the validated Canine Brief Pain Inventory (CBPI) assessment tool, which consists of a pain severity score (PSS), a Pain Interference Score (PIS), and an Owner Impression of dog's quality of life. CBPI scoring, as well as a veterinarian assessment of osteoarthritis, were conducted at Study Day 0 (baseline) and Days 7, 14, 21, and 28.
In total 476 dogs were screened in the study with 108 screen failures, resulting in […] in the per protocol population.

[4] = system: complete Freund's adjuvant-induced chronic inflammatory pain response; settings: cited from earlier work
[5] = 10 mg/kg, Group 4, 10 mg/kg capsule
[6] = single dose 5 mg (1 mg/kg), mean of all animals
[7] = for a 4-fold increase in dose from 0.5 to 2 mg/kg

## CCc1nc2c(C)nc(C)cc2n1-c1ccc(CCNC(=O)NS(=O)(=O)c2ccc(C)cc2)cc1 [grapiprant, N-{2-[4-(2-ethyl-4,6-dimethyl-1H-imidazo[4,5-c]pyridin-1-yl)phenyl]ethyl}-N′-[(4-methylphenyl)sulfonyl]urea]
[1]; 6 mg/kg, Group 3, 6 mg/kg capsule
  half-life: 2.79 h
[1]; [5]
  AUC(0-t): 7430 ng·h/mL
  half-life: 4.03 h
[1]; 10 mg/kg, Group 4, 10 mg/kg capsule, read-out: AUC0-∞
  AUC(0-inf): 7580 ng·h/mL
[1]; 10 mg/kg, Group 4, 10 mg/kg capsule, read-out: Cmax
  Cmax: 4280 ng/mL
[1]; 10 mg/kg, Group 4, 10 mg/kg capsule, read-out: Tmax
  Tmax: 1.33 h
[2]; both sexes, serum, 2.5 mg/animal, single dose 2.5 mg (0.5 mg/kg), mean of all animals
  AUC(0-t): 4190 ng·h/mL
[2]; both sexes, serum, 2.5 mg/animal, single dose 2.5 mg (0.5 mg/kg), mean of all animals, read-out: Cmax
  Cmax: 1060 ng/mL
[2]; both sexes, serum, 5 mg/animal, single dose 5 mg (1 mg/kg), mean of all animals, read-out: Tmax
  Tmax: 1.13 h
[2]; both sexes, serum, 10 mg/animal, single dose 10 mg (2 mg/kg), mean of all animals
  AUC(0-t): 21200 ng·h/mL
[2]; both sexes, serum, 10 mg/animal, single dose 10 mg (2 mg/kg), mean of all animals, read-out: Cmax
  Cmax: 4430 ng/mL
[2]; both sexes, serum, 0.5 to 2 mg/kg, read-out: Mean Tmax values among groups
  Tmax: 1.13 to 1.5 h
[2]; both sexes, serum, single dose 2.5 mg (0.5 mg/kg), mean of all animals
  half-life: 1.58 h
[2]; both sexes, serum, single dose 5 mg (1 mg/kg), mean of all animals
  half-life: 1.13 h
[2]; both sexes, serum, single dose 10 mg (2 mg/kg), mean of all animals
  half-life: 3.44 h
[2]; single dose 2.5 mg (0.5 mg/kg), mean of all animals
  Cmax/Dose: 2120 kg·ng/mL/mg
[2]; [6]
  Cmax: 2690 ng/mL
  Cmax/Dose: 2500 kg·ng/mL/mg
[2]; single dose 10 mg (2 mg/kg), mean of all animals
  Cmax/Dose: 2150 kg·ng/mL/mg
[2]; [7]
  increase in AUClast: 5.06 fold
  increase in Cmax: 4.18 fold
[3]; 2 mg/kg SID and 5 mg/kg SID doses
  control of pain and inflammation of osteoarthritis (PSS and PIS of the CBPI): equally effective in controlling the pain and inflammation of osteoarthritis in dogs
[3]; 2 mg/kg SID
  median decrease from baseline PSS score: 48
  median decrease from baseline PIS score: 53.25
[3]; 4 mg/kg BID
  median decrease from baseline PSS score: 44.44
  median decrease from baseline PIS score: 52.27
[3]; 5 mg/kg SID
  median decrease from baseline PSS score: 48.53
  median decrease from baseline PIS score: 55.27
[3]; 2 mg/kg SID, Day 7, median
  Pain Interference Score (PIS), % change from Day 0: −27.97%
  Pain Severity Score (PSS), % change from Day 0: −24.26%
[3]; 2 mg/kg SID, Day 14, median
  Pain Interference Score (PIS), % change from Day 0: −33.33%
  Pain Severity Score (PSS), % change from Day 0: −32.00%
[3]; 2 mg/kg SID, Day 21, median
  Pain Interference Score (PIS), % change from Day 0: −47.83%
  Pain Severity Score (PSS), % change from Day 0: −35.00%
[3]; 2 mg/kg SID, Day 28, median
  Pain Interference Score (PIS), % change from Day 0: −53.25%
  Pain Severity Score (PSS), % change from Day 0: −48.00%
[3]; 4 mg/kg BID, Day 7, median
  Pain Interference Score (PIS), % change from Day 0: −28.57%
  Pain Severity Score (PSS), % change from Day 0: −17.39%
[3]; 4 mg/kg BID, Day 14, median
  Pain Interference Score (PIS), % change from Day 0: −35.24%
  Pain Severity Score (PSS), % change from Day 0: −28.29%
[3]; 4 mg/kg BID, Day 21, median
  Pain Interference Score (PIS), % change from Day 0: −42.11%
  Pain Severity Score (PSS), % change from Day 0: −38.89%
[3]; 4 mg/kg BID, Day 28, median
  Pain Interference Score (PIS), % change from Day 0: −52.27%
  Pain Severity Score (PSS), % change from Day 0: −44.44%
[3]; 5 mg/kg SID, Day 7, median
  Pain Interference Score (PIS), % change from Day 0: −26.92%
  Pain Severity Score (PSS), % change from Day 0: −22.22%
[3]; 5 mg/kg SID, Day 14, median
  Pain Interference Score (PIS), % change from Day 0: −40.00%
  Pain Severity Score (PSS), % change from Day 0: −30.00%
[3]; 5 mg/kg SID, Day 21, median
  Pain Interference Score (PIS), % change from Day 0: −53.85%
  Pain Severity Score (PSS), % change from Day 0: −44.44%
[3]; 5 mg/kg SID, Day 28, median
  Pain Interference Score (PIS), % change from Day 0: −55.27%
  Pain Severity Score (PSS), % change from Day 0: −48.53%
[3]; extrapolated from human PK/PD, protein binding and receptor affinity, confirmed in the field study
  preliminary estimated mean effective canine dose: 2 mg/kg SID
[4]
  effect on chronic inflammatory pain response: reverses complete Freund's adjuvant-induced chronic inflammatory pain response
